Source: patent publication US6423334B1, “Composition and method for enhancing transport across gastrointestinal tract cell layers” (priority 1997, dated 2002)

Columns and labels:
[1] = Flux of [3H]-TRH across Caco-2 monolayers; assay type: in vitro ADME, human; conditions: human, Caco-2
Experimental: (§1) The cell monolayers were incubated as given in Example 4 above.
(§2) A further 2 hour transepithelial transport study was carried out as above for [^3H]-TRH (0.12 nM) except that excess TRH (cold, 4.4 mM; Bachem, UK) was also administered apically. […] No significant difference between TRH Papp values at low concentrations (0.05-0.1 nM) and high TRH concentrations (4.4 mM) was observed providing evidence of passive TRH absorption across the monolayer.
(§3) Statistically significant differences existed between Babassu TEER results and those of the other oils (2 mM) at each 30 minute interval except between Babassu oil and Almond oil at the T=30 sampling. No significant differences in TEER was observed between Almond oil, Palm Kernel oil and Maize oil. The average 30% reduction in TEER observed for Almond, Palm Kernel and Maize oils at 2 mM during the 2 hour flux was not evident in the presence of Babassu oil (2 mM).

Caco-2 monolayers [2] = experiment: Flux of [3H]-TRH across Caco-2 monolayers; assay type: in vitro ADME, human
Experimental: as §1, §2, §3

Caco-2 monolayers [3] = experiment: TEER of Caco-2 monolayers during flux experiments; assay type: cell-based, human; conditions: for overall decrease in resistance (TEER) of control cells / decrease in TEER: 2 hour flux; for overall decrease in resistance (TEER) of control cells: labelled drug alone, no enhancer
Experimental: Part a: Caco-2 monolayers (passage 20-40; 20-30 days post seeding on filters) were treated apically for 20-30 min with the 8mM and 40 mM Babassu oil in Hanks+25 mM Hepes. The oil was removed and replaced with Hanks containing 100 IU/ml Kraeber low molecular weight heparin. […] Transepithelial electrical resistance (TEER) measurements were taken at regular intervals for 20 min and subsequently every 30 min after the oil was removed with the Evohmeter (WPI) and chopsticks as shown in Table 4. The results are expressed as mean±S.E. (statistical differences examined using the two sided independent t-test).
as §2, §3

Caco-2 monolayers [4] = conditions: human, Caco-2, 2 h, 0.04 nM, pH 7.4
Experimental: (§4) The cell monolayers were incubated with prewarmed Hanks balanced salt solution (HBSS modified by adding 1 g glucose/I—final concentration 11 mM glucose and 24 mM Hepes, pH 7.4) at 37° C. for 30 minutes, adding 1 ml to apical and 2 ml to the basolateral side. At T=0, apical HBSS was replaced with 1 ml HBSS containing the mannitol transport solution and the plates were placed in a 37° C. incubator on an orbital shaker. Samples were taken from the apical side at T=0 and T=120 min and from the basolateral side every 30 min. The resulting samples were measured by liquid scintillation spectrophotometry using a Wallac 1409.
(§5) An experiment similar to the above transepithelial transport of mannitol experiment was conducted except that cytochalasin D (1 μg/ml), a potent tight junction opener, was added apically and basolaterally at time zero instead of the Babassu oil.
(§6) Following the procedures of the 2 hour flux experiments of Example 4 above, [^3H]-mannitol (0.04 nM) was added apically to Caco-2 monolayers in the presence of 0.1 mM, 5.0 mM, and 10 mM Almond Oil, 0.1 mM, 2.0 mM, 2.5 mM, 5.0 mM and 10 mM Palm Kernel oil as well as 0.1 mM, 1 mM and 2 mM Maize oil.

in vitro = conditions: human
Experimental: as §4, §5, §6

SMILES	Papp A→B at 2 h, 0.12 nM [1]	Papp A→B at 2 h, 0.2 nM [1]	TRH transported across the Caco-2 monolayer (Caco-2 monolayers [2]; Caco-2)	overall decrease in resistance (TEER) of control cells (Caco-2 monolayers [3])	reduction in TEER (Caco-2 monolayers [3]; [3H]-TRH 0.12 nM in the presence and absence of excess cold TRH (4.4 mM), 2 hours)	apparent permeability coefficient (Papp) of TRH (Caco-2 monolayers [2]; in the presence of cytochalasin D 1 μg/ml)	decrease in TEER (Caco-2 monolayers [3]; Cytochalasin D with [3H]-TRH)	decrease in TEER (Caco-2 monolayers [3]; Cytochalasin D with [3H]-mannitol)	reduction in TEER (Caco-2 monolayers [3]; cytochalasin D 1 μg/ml apically and basolaterally, mannitol flux)	initial reduction in TEER (Caco-2 monolayers [3]; cytochalasin D 1 μg/ml, TRH flux, first hour)	additional reduction in TEER (Caco-2 monolayers [3]; cytochalasin D 1 μg/ml, TRH flux, remaining hour)	% Transport per hour (Caco-2 monolayers [4])	Papp A→B at 2 h, 0.04 nM (in vitro; Caco-2, pH 7.4, Papp)	Papp A→B at 2 h, 0.04 nM (in vitro; Caco-2, pH 7.4, apparent permeability coefficient (Papp) of mannitol)
NC(=O)[C@@H]1CCCN1C(=O)[C@H](Cc1cnc[nH]1)NC(=O)[C@@H]1CCC(=O)N1 [TRH, Thyrotropin releasing hormone]	0.53 ×10⁻⁶ cm/s	0.72 ± 0.025 ×10⁻⁶ cm/s	0.2%	29.2%	approximately 20%									
C=C1[C@@H](C)[C@H]2[C@H](Cc3ccccc3)NC(=O)[C@]23[C@H](OC(C)=O)/C=C/[C@@](C)(O)C(=O)[C@@H](C)C/C=C/[C@H]3[C@@H]1O [cytochalasin D]						5.7 ×10⁻⁶ cm/s	50%	59%	60%	40%	22%			
OC[C@@H](O)[C@@H](O)[C@H](O)[C@H](O)CO [mannitol, mannitol, D -[1-^3H (n)]]				12.8%								0.28%	0.79 ± 0.03 ×10⁻⁶ cm/s	0.79 ×10⁻⁶ cm/s
